Results: patent US8148391B2 (Cephalon, Inc., priority 2006, dated 2012)
Read-outs that look alike come from different tables or passages of the source.

How the values were obtained:
[1] = target: T1, baculovirus-expressed ALK (Homo sapiens, UniProt Q9UM73); assay: ALK Kinase Assay (ELISA-type, time-resolved fluorescence); type: biochemical
T1 construct: host or cells: baculovirus expression system
Outline: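 Substrate coating: phospholipase C-γ, 10 μg/mL in TBS. Kinase step: 30 ng/ml ALK, 15 min, 37° C. Detection and analysis: Eu-N1 PT66 antibody, with IC50 fitted as a sigmoidal variable-slope dose-response curve.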

[2] = target: T2, c-Met (cytoplasmic domain) (Homo sapiens, UniProt P08581); assay: c-Met Kinase Assay (same methods as for ALK, with modifications); type: biochemical
T2 construct: 10 ng/mL c-Met (cytoplasmic domain, Invitrogen Corporation #PV3143); purchased Invitrogen Corporation PV3143
T2 sequence (P08581 956-1390 limits assumed): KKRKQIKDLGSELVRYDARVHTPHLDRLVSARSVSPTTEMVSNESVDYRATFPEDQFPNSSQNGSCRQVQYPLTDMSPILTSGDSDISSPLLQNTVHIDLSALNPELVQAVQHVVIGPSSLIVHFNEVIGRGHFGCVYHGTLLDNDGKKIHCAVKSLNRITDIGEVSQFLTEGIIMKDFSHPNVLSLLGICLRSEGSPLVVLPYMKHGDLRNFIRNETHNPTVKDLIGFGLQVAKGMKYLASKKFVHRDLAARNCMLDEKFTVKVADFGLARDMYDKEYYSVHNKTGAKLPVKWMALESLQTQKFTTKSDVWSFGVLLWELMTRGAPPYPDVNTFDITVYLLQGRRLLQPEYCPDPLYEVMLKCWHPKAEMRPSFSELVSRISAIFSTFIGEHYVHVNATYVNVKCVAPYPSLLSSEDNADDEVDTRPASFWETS
Outline: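 Wells were coated with 10 μg/mL phospholipase C-γ substrate in TBS, and reactions were started with 10 ng/mL c-Met cytoplasmic domain and run at 37° C for 15 minutes. Phosphorylated product was detected with Eu-N1-labeled PT66 antibody. IC50 values came from sigmoidal variable-slope fits of percent inhibition versus log compound concentration.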

[3] = 1 μM ATP (Km level), 30 ng/ml ALK, 37° C., 15 minutes, read-out: ALK Activity (ALK kinase inhibition, IC50 class)
[4] = 1 μM ATP (Km level), 10 ng/mL c-Met, read-out: cMet Activity (c-Met kinase inhibition, IC50 class)
[5] = ALK kinase inhibition, 1 μM ATP (Km level), read-out: ALK Activity
[6] = c-Met kinase inhibition, 1 μM ATP (Km level), read-out: cMet Activity
[7] = ALK kinase inhibition, 1 μM ATP, read-out: ALK Activity
[8] = c-Met kinase inhibition, 1 μM ATP, read-out: cMet Activity

T1 sequence (Q9UM73 19-1620): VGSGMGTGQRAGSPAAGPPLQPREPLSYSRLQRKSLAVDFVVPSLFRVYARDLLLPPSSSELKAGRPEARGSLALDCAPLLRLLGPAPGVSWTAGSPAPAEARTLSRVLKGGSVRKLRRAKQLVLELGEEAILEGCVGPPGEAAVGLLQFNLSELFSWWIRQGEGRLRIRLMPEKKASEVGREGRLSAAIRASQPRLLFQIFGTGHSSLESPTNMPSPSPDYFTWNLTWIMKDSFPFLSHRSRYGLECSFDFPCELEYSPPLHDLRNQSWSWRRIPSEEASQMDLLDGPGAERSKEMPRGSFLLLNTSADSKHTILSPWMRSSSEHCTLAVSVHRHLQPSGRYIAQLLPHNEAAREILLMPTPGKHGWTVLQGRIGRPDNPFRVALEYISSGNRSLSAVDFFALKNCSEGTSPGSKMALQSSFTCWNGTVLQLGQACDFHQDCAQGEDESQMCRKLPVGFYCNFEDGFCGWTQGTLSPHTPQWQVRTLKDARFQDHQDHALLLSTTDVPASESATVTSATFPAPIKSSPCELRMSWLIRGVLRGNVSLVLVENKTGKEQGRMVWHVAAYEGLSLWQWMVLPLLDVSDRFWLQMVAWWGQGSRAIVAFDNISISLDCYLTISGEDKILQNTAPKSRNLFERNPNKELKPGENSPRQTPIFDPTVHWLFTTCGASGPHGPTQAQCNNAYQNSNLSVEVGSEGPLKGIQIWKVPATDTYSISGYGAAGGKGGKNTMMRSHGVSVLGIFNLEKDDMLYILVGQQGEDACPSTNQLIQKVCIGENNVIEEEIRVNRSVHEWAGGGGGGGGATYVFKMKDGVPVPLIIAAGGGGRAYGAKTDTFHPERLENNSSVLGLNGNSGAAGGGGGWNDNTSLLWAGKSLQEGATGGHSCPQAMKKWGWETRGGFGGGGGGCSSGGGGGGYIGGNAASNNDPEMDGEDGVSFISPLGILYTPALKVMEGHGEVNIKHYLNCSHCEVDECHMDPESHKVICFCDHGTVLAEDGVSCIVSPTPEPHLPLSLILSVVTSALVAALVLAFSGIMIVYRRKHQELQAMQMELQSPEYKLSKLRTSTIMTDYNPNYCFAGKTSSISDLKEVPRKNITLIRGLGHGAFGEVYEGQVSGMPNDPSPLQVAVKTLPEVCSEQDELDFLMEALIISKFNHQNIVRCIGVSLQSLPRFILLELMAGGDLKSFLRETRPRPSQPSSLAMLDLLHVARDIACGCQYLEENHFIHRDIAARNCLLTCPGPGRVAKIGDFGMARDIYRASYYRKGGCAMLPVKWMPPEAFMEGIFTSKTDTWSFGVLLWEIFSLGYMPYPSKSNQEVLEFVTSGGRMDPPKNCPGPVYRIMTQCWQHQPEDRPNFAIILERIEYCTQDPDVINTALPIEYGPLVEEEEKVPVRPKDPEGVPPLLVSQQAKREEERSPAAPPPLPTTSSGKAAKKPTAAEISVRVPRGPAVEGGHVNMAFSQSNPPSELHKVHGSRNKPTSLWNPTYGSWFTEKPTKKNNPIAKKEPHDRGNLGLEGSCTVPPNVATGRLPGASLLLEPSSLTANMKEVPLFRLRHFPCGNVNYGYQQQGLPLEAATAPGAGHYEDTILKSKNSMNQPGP

| IC50 [1, 3] [nM] | IC50 [2, 4] [nM] | IC50 [1, 7] [nM] | IC50 [2, 8] [nM] | SMILES | other results |
| --- | --- | --- | --- | --- | --- |
|  |  | 1000 to 10000 | 1000 to 10000 | Cc1noc(-c2ccccc2Nc2nc(Nc3ccc4c(c3)CCOC(=O)N4C)ncc2Cl)n1 [Example 1784, 2-{5-Chloro-4-[2-(3-methyl-[1,2,4]oxadiazol-5-yl)-phenylamino]-pyrimidin-2-ylamino}-5-methyl-8,9-dihydro-5H-7-oxa-5-aza-benzocyclohepten-6-one] |  |
|  |  | < 100 | < 100 | CNC(=O)c1cccc(F)c1Nc1nc(Nc2ccc3c(c2)CCOC(=O)N3C)ncc1Cl [Example 1742, 3-Fluoro-2-[5-chloro-2-(5-methyl-6-oxo-5,6,8,9-tetrahydro-7-oxa-5-aza-benzocyclohepten-2-ylamino)-pyrimidin-4-ylamino]-N-methyl-benzamide] |  |
|  |  | < 100 | < 100 | CN1C(=O)OCCc2cc(Nc3ncc(Cl)c(Nc4ccccc4OCC#N)n3)ccc21 [Example 1748, {2-[5-chloro-2-(5-methyl-6-oxo-5,6,8,9-tetrahydro-7-oxa-5-aza-benzocyclohepten-2-ylamino)-pyrimidin-4-ylamino]-phenoxy}-acetonitrile] |  |

The remaining lines, values behind:

| SMILES | IC50 [1, 3] [nM] | IC50 [2, 4] [nM] | IC50 [1, 7] [nM] | IC50 [2, 8] [nM] | other results |
| --- | --- | --- | --- | --- | --- |
| COc1cc2c(cc1Nc1ncc(Cl)c(N[C@H]3[C@@H](C(N)=O)[C@@H]4C=C[C@H]3C4)n1)C(C)(C)CCC(=O)N2C [Example 1313, (1S,2S,3R,4R)-3-[5-Chloro-2-(8-methoxy-1,5,5-trimethyl-2-oxo-2,3,4,5-tetrahydro-1H-benzo[b]azepin-7-ylamino)-pyrimidin-4-ylamino]-bicyclo[2.2.1]hept-5-ene-2-carboxylic acid amide] | < 100 | > 10000 |  |  |  |
| CNC(=O)c1cccc(Cl)c1Nc1nc(Nc2ccc3c(c2)CCCC(=O)N3C)ncc1Cl [Example 352, 3-Chloro-2-[5-chloro-2-(1-methyl-2-oxo-2,3,4,5-tetrahydro-1H-benzo[b]azepin-7-ylamino)-pyrimidin-4-ylamino]-N-methyl-benzamide] |  |  |  |  | IC50 [1, 5]: 1000 to 10000 nM; IC50 [2, 6]: < 100 nM |
| O=C1CCCc2ccc(Nc3ncc(Cl)c(Nc4c(F)cccc4OCC4CCOC4)n3)cc2N1 (centres unmarked) [Example 1276, 8-{5-Chloro-4-[2-fluoro-6-(tetrahydro-furan-3-ylmethoxy)-phenylamino]-pyrimidin-2-ylamino}-1,3,4,5-tetrahydro-1-benzazepin-2-one] | 100 to 1000 | 100 to 1000 |  |  |  |
| C#CCN1CC2CCC(C1)c1cc(Nc3ncc(Cl)c(Nc4ccccc4S(=O)(=O)N(C)CC#C)n3)ccc12 (centres unmarked) [Example 288, 2-[5-Chloro-2-(10-prop-2-ynyl-10-aza-tricyclo[6.3.2.0*2,7*]trideca-2,4,6-trien-4-ylamino)-pyrimidin-4-ylamino]-N-methyl-N-prop-2-ynyl-benzenesulfonamide] |  |  |  |  | IC50 [1, 5]: < 100 nM; IC50 [2, 6]: 100 to 1000 nM |
| CNC(=O)c1cccc(F)c1Nc1nc(Nc2ccc3c(c2)NCC(NCCOC)CC3(C)C)ncc1Cl (centres unmarked) [Example 1294, 2-{5-Chloro-2-[3-(2-methoxy-ethylamino)-5,5-dimethyl-2,3,4,5-tetrahydro-1H-1-benzazepin-8-ylamino]-pyrimidin-4-ylamino}-3-fluoro-N-methyl-benzamide] | < 100 | < 100 |  |  |  |
| CCNC(=O)c1cccc(F)c1Nc1nc(Nc2cc3c(cc2OC)CCN(CC(=O)NC)CC3)ncc1Cl [Example 1364, 2-[5-Chloro-2-(8-methoxy-3-methylcarbamoylmethyl-2,3,4,5-tetrahydro-1H-benzo[d]azepin-7-ylamino)-pyrimidin-4-ylamino]-N-ethyl-3-fluoro-benzamide] | < 100 | 1000 to 10000 |  |  |  |
| COc1ccccc1Nc1nc(Nc2ccc3c(c2)CCC(NCC(F)F)CC3)ncc1Cl (centres unmarked) [Example 663, 5-Chloro-N*2*-[7-(2,2-difluoro-ethylamino)-6,7,8,9-tetrahydro-5H-benzocyclohepten-2-yl]-N*4*-(2-methoxy-phenyl)-pyrimidine-2,4-diamine] |  |  |  |  | IC50 ([1]; 1 μM ATP (Km level), read-out: ALK Activity (ALK Kinase Inhibition, IC50)): < 100 nM; IC50 ([2]; 1 μM ATP (Km level), read-out: cMet Activity (c-Met Kinase Inhibition, IC50)): 1000 to 10000 nM |
